Patent US20090042879A1, “PHTHALAZINONE DERIVATIVES AND PHARMACEUTICAL COMPOSITIONS COMPRISING THE SAME” (NIPPON SHINYAKU CO., LTD., priority 2005, published 2009)

Experiments:
TNCB-induced dermatitis = assay: Dermatitis inhibitory effect in trinitrochlorobenzene (TNCB)-induced dermatitis model; format: in vivo, BALB/C mouse; settings: 20 mg of 1.0% test compound/vaseline ointment on right pinna, five times in 1 week; pinna thickness 6 hours after last application
Procedure: The dermatitis inhibitory effect of a test compound was investigated, using a trinitrochlorobenzene (TNCB)-induced dermatitis model (J. Invest. Dermatol., 105, 749-755, 1995, J. Immuno., 159, 2484-2491, 1997).
20 μL of 1% (w/v) TNCB/acetone solution was applied dropwise to both sides of the right pinna of a BALB/C mouse (♂, 8-week old), whereby the mouse was sensitized. From day 7 after the sensitization with TNCB, 1% TNCB/acetone solution was applied to both sides of the right pinna of the mouse every other day at 3 times/week, for 3 weeks in total. TNCB was applied for 2 weeks so as to fully induce dermatitis in the mouse, and then 20 mg of 1.0% test compound/vaseline ointment was applied to both sides of the right pinna five times in total for 1 week. At 6 hours after the last application, the thickness of the right pinna of the mouse was measured, and the effect of the test compound on dermatitis was thus evaluated. The inhibitory rate was calculated according to the following formula.
Inhibitory Rate (%)={1−[mean thickness of inflamed pinna (right ear) of chemical-treated group−mean thickness of non-inflamed pinna (left ear) of the group]/[mean thickness of inflamed pinna (right ear) of diseased control group−mean thickness of non-inflamed pinna (left ear) of the group]}×100.

[1] = test system: TNF-α production from rat whole blood cells stimulated with LPS; assay: TNF-α production-suppressing activity in LPS-stimulated rat whole blood (ELISA); format: cell-based; settings: 37° C. for 5 hours
Procedure: The activity of a test compound to suppress TNF-α production from rat whole blood cells stimulated with LPS was evaluated in the manner mentioned below (J. Pharmacol. Exp. Ther., 302, 390-396, 2000).
Under anesthesia with ether, a proper amount of blood was taken out from a 10-week male SD rat (♂, 10-week old) through its abdominal vein into a tube with EDTA (1.6 mg/mL) therein. A test compound was dissolved in dimethyl sulfoxide to prepare its 10^−2 M solution, which was diluted before use. 80 μL of rat blood was dispensed into each well of a 96-well plate, then 10 μL of the test compound solution was added thereto, and incubated at 37° C. in 5% CO2 for 30 minutes. The test compound and the blood were well mixed, then 10 μL of LPS (100 μg/mL) was added thereto, and incubated at 37° C. in 5% CO2 for 5 hours. Further, 100 μL of PBS was added to each well, then the plate was centrifuged at 4000 rpm for 2 minutes to collect the supernatant, and this was frozen and stored at −80° C. until its use for analysis. The amount of TNF-α production was measured through ELISA. IC50 for TNF-α production-suppressing activity was calculated as the test compound concentration for 50% inhibition of TNF-α production.
As a control compound, the above-mentioned known compound (compound of general formula [A] in which R is a carboxyl group, cis-4-[4-(3,4-dimethoxyphenyl)-1-oxo-4a,5,8,8a-tetrahydro-1H-phthalazin-2-yl-methyl]benzoic acid (hereinafter referred to as control compound A)) was used.

[2] = Metabolism by human liver microsome; format: in vitro ADME; settings: NADPH producing system, 37° C., 10 minutes after start of incubation
Procedure: The metabolic characteristics of a test compound were investigated, using human liver microsome.
400 μL of EP buffer (0.25 mM EDTA, 0.25 M potassium phosphate buffer, pH 7.4), 50 μL of 20 mg/mL human liver microsome fraction (by KAC), 350 μl of pure water and 100 μL of 1×10^−4 M test compound were put into a 1.5 mL microtube, and preincubated at 37° C. for 5 minutes. 100 μL of an NADPH producing system (containing 20 mg of NADP+, 70 mg of G6P, 40 units of G6PDH, 20 mg of magnesium chloride hexahydrate in 1 mL of pure water) was added to it, and incubated. To 100 μL of the sample taken at 10 minutes after the start of the incubation, added was the same amount of acetonitrile, and the reaction was thereby stopped. […] 20 μL of the supernatant was led into a high-performance liquid chromatography (Shimadzu'sSPD-10A, LC-10AS, CTO-10A, C-R6A), and the peak area of the test compound at 320 nm was measured, using a C18 column (Cadenza, CD-C18, 75×4.6 mm). […] Under the condition, the peak area of the test compound was measured. The metabolic rate was calculated as follows: 100 μL of acetonitrile was added to 90 μL of the above pre-incubated solution, and then 10 μl of the NADPH producing system was added thereto, and the resulting solution was analyzed for the peak area of the test compound. Based on it, the metabolic rate in 10 minutes after the incubation was calculated.

human recombinant PDE4D = molecular target: T1, human recombinant PDE4D (Homo sapiens, UniProt Q08499); assay: PDE4 inhibitory activity (cAMP hydrolysis, HitHunter cAMP II chemiluminescent kit); format: biochemical; settings: 5 ng human recombinant PDE4D, 1 pmol cAMP, 30° C. for 30 minutes
T1 construct: purchased ABNOVA H00005144-P01
Procedure: The activity of a test compound to inhibit human PDE4 was evaluated in the manner mentioned below.
In the presence of a test compound (10^−7 to 10^−12 M), 1 pmol of cAMP was hydrolyzed through incubation with 5 ng of human recombinant PDE4D (ABNOVA's #H00005144-P01, Lot. FAK0050713Jb01, Taiwan) at 30° C. for 30 minutes. After the hydrolysis, the cAMP concentration was measured with a chemiluminescent kit, HitHunter cAMP II Assay Kit (by Amersham Bioscience).

[3] = Rattus norvegicus, Whole blood cell, 5 h

T1 sequence (Q08499 whole entry): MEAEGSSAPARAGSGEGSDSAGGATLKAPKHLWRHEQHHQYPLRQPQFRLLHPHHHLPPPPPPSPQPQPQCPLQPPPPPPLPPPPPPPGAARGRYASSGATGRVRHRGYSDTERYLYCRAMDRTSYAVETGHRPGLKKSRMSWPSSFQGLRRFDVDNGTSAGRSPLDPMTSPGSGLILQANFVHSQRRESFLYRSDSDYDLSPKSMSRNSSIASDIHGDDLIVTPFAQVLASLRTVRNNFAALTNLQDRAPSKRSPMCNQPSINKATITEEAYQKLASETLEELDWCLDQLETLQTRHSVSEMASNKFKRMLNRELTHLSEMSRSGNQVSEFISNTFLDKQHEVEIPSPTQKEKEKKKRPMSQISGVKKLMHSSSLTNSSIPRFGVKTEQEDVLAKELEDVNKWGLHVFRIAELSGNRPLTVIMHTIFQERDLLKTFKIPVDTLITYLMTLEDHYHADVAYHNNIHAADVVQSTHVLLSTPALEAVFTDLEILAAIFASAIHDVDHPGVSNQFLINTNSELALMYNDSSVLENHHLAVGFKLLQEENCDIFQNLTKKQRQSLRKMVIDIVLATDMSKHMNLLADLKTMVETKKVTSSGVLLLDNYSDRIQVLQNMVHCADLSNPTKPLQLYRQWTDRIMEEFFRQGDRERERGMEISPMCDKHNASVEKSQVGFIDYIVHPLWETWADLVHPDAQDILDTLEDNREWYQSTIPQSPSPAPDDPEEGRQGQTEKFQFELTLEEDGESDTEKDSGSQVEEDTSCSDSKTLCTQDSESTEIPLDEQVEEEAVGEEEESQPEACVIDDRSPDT

IC50 ([1]; Whole blood cell)	Metabolic Rate (%) [2]	IC50 (human recombinant PDE4D)	IC50 [1, 3]	IC50 ([1]; monomaleate)	Structure (SMILES)	Dermatitis Inhibitory Percentage (%) (TNCB-induced dermatitis)
133 µM	35.2%				COc1ccc(C2=NN(Cc3ccc(C(=O)O)cc3)C(=O)[C@H]3CC=CC[C@@H]23)cc1OC (relative stereo) [control compound A, cis-4-[4-(3,4-dimethoxyphenyl)-1-oxo-4a,5,8,8a-tetrahydro-1H-phthalazin-2-yl-methyl]benzoic acid, reference compound]	2.6%
0.0049 µM					COc1ccc(C2=NN(Cc3ccc(CN4CCNC(=O)C4)cc3)C(=O)[C@H]3CC=CC[C@@H]23)cc1OC (relative stereo) [Example 16, cis-(+)-4-(3,4-Dimethoxyphenyl)-2-[4-(3-oxopiperazin-1-ylmethyl)benzyl]-4a,5,8,8a-tetrahydro-2H-phthalazin-1-one]	
0.199 µM		0.02 µM			COc1ccc(C2=NN(Cc3ccc(CN4CCC5(CC4)OCCO5)cc3)C(=O)[C@H]3CC=CC[C@@H]23)cc1OC (relative stereo) [Example 5, cis-4-(3,4-Dimethoxyphenyl)-2-[4-(1,4-dioxa-8-azaspiro[4,5]dec-8-ylmethyl)benzyl]-4a,5,8,8a-tetrahydro-2H-phthalazin-1-one]	20.2%
0.0024 µM	61.5%				COc1ccc(C2=NN(Cc3ccc(CN4CCOCC4)cc3)C(=O)C3CC=CCC23)cc1OC (single isomer, unassigned) [Example 2-1, cis-(+)-4-(3,4-Dimethoxyphenyl)-2-[4-(morpholin-4-ylmethyl)benzyl]-4a,5,8,8a-tetrahydro-2H-phthalazin-1-one]	38.5%
0.012 µM					COc1ccc(C2=NN(Cc3ccc(C[N+]4([O-])CCOCC4)cc3)C(=O)[C@H]3CC=CC[C@@H]23)cc1OC (relative stereo) [Example 21, cis-(+)-4-{4-[4-(3,4-dimethoxyphenyl)-1-oxo-4a,5,8,8a-tetrahydro-1H-phthalazin-2-ylmethyl]benzyl}morpholine 4-oxide]	
0.107 µM		0.02 µM			COc1ccc(C2=NN(Cc3cccc(CN4CCOCC4)c3)C(=O)[C@H]3CC=CC[C@@H]23)cc1OC (relative stereo) [Example 10, cis-4-(3,4-Dimethoxyphenyl)-2-[3-(morpholin-4-ylmethyl)benzyl]-4a,5,8,8a-tetrahydro-2H-phthalazin-1-one]	31.1%
		0.0013 µM	0.084 µM		COc1ccc(C2=NN(Cc3ccc(CN4CCC(=O)CC4)cc3)C(=O)[C@H]3CC=CC[C@@H]23)cc1OC (relative stereo) [Example 6, cis-4-(3,4-Dimethoxyphenyl)-2-[4-(4-oxopiperidin-1-ylmethyl)benzyl]-4a,5,8,8a-tetrahydro-2H-phthalazin-1-one]	36.8%
0.019 µM					COc1ccc(C2=NN(Cc3cccc(CN4CCNC(=O)C4)c3)C(=O)[C@H]3CC=CC[C@@H]23)cc1OC (relative stereo) [Example 20, cis-(+)-4-(3,4-dimethoxyphenyl)-2-[3-(3-oxopiperazin-1-ylmethyl)benzyl]-4a,5,8,8a-tetrahydro-2H-phthalazin-1-one]	
		0.00079 µM		0.0011 µM	COc1ccc(C2=NN(Cc3ccc(CN4CCOCC4)cc3)C(=O)C3CC=CCC23)cc1OC (single isomer, unassigned) [Example 2-2, cis-(+)-4-(3,4-Dimethoxyphenyl)-2-[4-(morpholin-4-ylmethyl)benzyl]-4a,5,8,8a-tetrahydro-2H-phthalazin-1-one monomaleate]	
		0.063 µM	0.0043 µM		COc1ccc(C2=NN(Cc3ccc(CN4CCOCC4)cc3)C(=O)C3CC=CCC23)cc1OC (stereo not drawn) [Example 1, cis-4-(3,4-Dimethoxyphenyl)-2-[4-(morpholin-4-ylmethyl)benzyl]-4a,5,8,8a-tetrahydro-2H-phthalazin-1-one]	31.2%
0.012 µM					COc1ccc(C2=NN(Cc3ccc(N4CCOCC4)cc3)C(=O)[C@H]3CC=CC[C@@H]23)cc1OC (relative stereo) [Example 24, cis-4-(3,4-Dimethoxyphenyl)-2-(4-morpholin-4-ylbenzyl)-4a,5,8,8a-tetrahydro-2H-phthalazin-1-one]	
		0.025 µM	0.001 µM		COc1ccc(C2=NN(Cc3ccc(Cn4ccnc4)cc3)C(=O)[C@H]3CC=CC[C@@H]23)cc1OC (relative stereo) [Example 9, cis-4-(3,4-Dimethoxyphenyl)-2-[4-(imidazol-1-ylmethyl)benzyl]-4a,5,8,8a-tetrahydro-2H-phthalazin-1-one]	
0.059 µM		0.005 µM			COc1ccc(C2=NN(Cc3ccc(CN4CCOCC4)cc3)C(=O)[C@H]3CCCC[C@@H]23)cc1OC (relative stereo) [Example 13, cis-4-(3,4-Dimethoxyphenyl)-2-[4-(morpholin-4-ylmethyl)benzyl]-4a,5,6,7,8,8a-hexahydro-2H-phthalazin-1-one]	33.2%
